Publication PMC7587962, “Evaluation of Cytotoxicity and α-Glucosidase Inhibitory Activity of Amide and Polyamino-Derivatives of Lupane Triterpenoids” (Molecules, 2020)
Where two headings read alike, the source gives them in different places.

Columns and labels:
Leukemia subpanel = assay: NCI-60 screen, subpanel Leukemia
CNS cancer subpanel = assay: NCI-60 screen, subpanel CNS cancer
SNB-19 = assay: NCI-60 SRB screen: CNS cancer SNB-19; assay type: cell-based, human; conditions: SNB-19
SR = assay: NCI-60 SRB screen: leukemia SR; assay type: cell-based; conditions: Homo sapiens, 48 h
OVCAR-4 = assay: NCI-60 SRB screen: ovarian cancer OVCAR-4; assay type: cell-based; conditions: Homo sapiens; OVCAR-4; five concentrations, 48 h, SRB; read-out: GI50
NCI-H226 = assay: NCI-60 SRB screen: non-small cell lung cancer NCI-H226; assay type: cell-based, human; conditions: NCI-H226
Melanoma subpanel = assay: NCI-60 screen, subpanel Melanoma
PC-3 = assay: NCI-60 SRB screen: prostate cancer PC-3; assay type: cell-based, human; conditions: PC-3
UO-31 = assay: NCI-60 SRB screen: renal cancer UO-31; assay type: cell-based, human; conditions: UO-31
MCF7 = assay: NCI-60 SRB screen: breast cancer MCF7; assay type: cell-based; conditions: Homo sapiens, 48 h, MCF7
UACC-62 = assay: NCI-60 SRB screen: melanoma UACC-62; assay type: cell-based, human; conditions: UACC-62
[1] = system: 60 human tumor cell lines; assay: cells
COLO 205 = assay: NCI-60 SRB screen: colon cancer COLO 205; assay type: cell-based, human; conditions: COLO 205
Colon Cancer subpanel = assay: NCI-60 screen, subpanel Colon Cancer
HL-60(TB) = assay: NCI-60 SRB screen: leukemia HL-60(TB); assay type: cell-based; conditions: Homo sapiens, 48 h, HL-60(TB)
HCT-116 = assay: NCI-60 SRB screen: colon cancer HCT-116; assay type: cell-based; conditions: Homo sapiens, 48 h, HCT-116
786-0 = assay: NCI-60 SRB screen: renal cancer 786-0; assay type: cell-based, human; conditions: 786-0
M14 = assay: NCI-60 SRB screen: melanoma M14; assay type: cell-based, human; conditions: M14
SW-620 = assay: NCI-60 SRB screen: colon cancer SW-620; assay type: cell-based; conditions: Homo sapiens, 48 h, SW-620
UACC-257 = assay: NCI-60 SRB screen: melanoma UACC-257; assay type: cell-based, human; conditions: UACC-257
A498 = assay: NCI-60 SRB screen: renal cancer A498; assay type: cell-based, human; conditions: A498
BT-549 = assay: NCI-60 SRB screen: breast cancer BT-549; assay type: cell-based, human; conditions: BT-549
MDA-MB-468 = assay: NCI-60 SRB screen: breast cancer MDA-MB-468; assay type: cell-based, human
LOX IMVI = assay: NCI-60 SRB screen: melanoma LOX IMVI; assay type: cell-based, human
SK-OV-3 = assay: NCI-60 SRB screen: ovarian cancer SK-OV-3; assay type: cell-based, human; conditions: SK-OV-3
HCT-15 = assay: NCI-60 SRB screen: colon cancer HCT-15; assay type: cell-based, human; conditions: HCT-15
SN12C = assay: NCI-60 SRB screen: renal cancer SN12C; assay type: cell-based, human
[2] = system: 60 human tumor cell lines; conditions: single dose 10 µM
SK-MEL-28 = assay: NCI-60 SRB screen: melanoma SK-MEL-28; assay type: cell-based, human; conditions: SK-MEL-28
NCI/ADR-RES = assay: NCI-60 SRB screen: ovarian cancer NCI/ADR-RES; assay type: cell-based, human
SK-MEL-2 = assay: NCI-60 SRB screen: melanoma SK-MEL-2; assay type: cell-based, human; conditions: SK-MEL-2
Prostate cancer subpanel = assay: NCI-60 screen, subpanel Prostate cancer
Breast cancer subpanel = assay: NCI-60 screen, subpanel Breast cancer
NCI-H522 = assay: NCI-60 SRB screen: non-small cell lung cancer NCI-H522; assay type: cell-based, human; conditions: NCI-H522
[3] = Homo sapiens, five concentrations, 48 h, SRB, read-out: GI50
[4] = single dose 10 µM, read-out: Percentage Cell Growth
[5] = five concentrations, SRB, read-out: GI50

CC(=O)OCC12CCC(C(C)C(N)=O)C1C1CCC3C4(C)CCC(OC(C)=O)C(C)(C)C4CCC3(C)C1(C)CC2 [Compound 4, 3β,28-Diacetyloxy-(20R)-29-amino-29-oxolupane]
MID b, average sensitivity of all cell line of particular subpanel (Leukemia subpanel): 3.55 µM
Selectivity, ratio MID a: MID b (Leukemia subpanel): 2.22
MID b, average sensitivity of all cell line of particular subpanel (CNS cancer subpanel): 7.27 µM
Selectivity, ratio MID a: MID b (CNS cancer subpanel): 1.08
GI50 (SNB-19; [3]): 11.9 µM
Percentage Cell Growth (SNB-19; single dose 10 µM): −39.95%
activity at 10 µM (SR; [4]): 10.8%
GI50 (SR; [5]): 3.32 µM
GI50 (OVCAR-4): 4.72 µM
GI50 (NCI-H226; [3]): 7.28 µM
Percentage Cell Growth (NCI-H226; single dose 10 µM): −58.51%
MID b, average sensitivity of all cell line of particular subpanel (Melanoma subpanel): 7.80 µM
Selectivity, ratio MID a: MID b (Melanoma subpanel): 1.01
GI50 (PC-3; [3]): 2.67 µM
Percentage Cell Growth (PC-3; single dose 10 µM): −47.42%
GI50 (UO-31; [3]): 7.57 µM
Percentage Cell Growth (UO-31; single dose 10 µM): −97.54%
activity at 10 µM (MCF7; [4]): -45.6%
GI50 (MCF7; [5]): 3.27 µM
GI50 (UACC-62; [3]): 5.46 µM
Percentage Cell Growth (UACC-62; single dose 10 µM): −82.97%
GI50 ([1]; read-out: GI50 ranges against all panels of NCI60): 1.1 to 54.4 µM
GI50 ([1]; read-out: MID a, average sensitivity of all cell line (GI50-MID)): 7.87 µM
Percentage Cell Growth (COLO 205; single dose 10 µM): −52.98%
GI50 (COLO 205; [3]): 4.31 µM
MID b, average sensitivity of all cell line of particular subpanel (Colon Cancer subpanel): 5.37 µM
Selectivity, ratio MID a: MID b (Colon Cancer subpanel): 1.47
activity at 10 µM (HL-60(TB); [4]): -23.1%
GI50 (HL-60(TB); [5]): 2.76 µM
activity at 10 µM (HCT-116; [4]): -84.2%
GI50 (HCT-116; [5]): 3.57 µM
Percentage Cell Growth (786-0; single dose 10 µM): −73.99%
GI50 (786-0; [3]): 10.9 µM
GI50 (M14; [3]): 7.38 µM
Percentage Cell Growth (M14; single dose 10 µM): −44.25%
activity at 10 µM (SW-620; [4]): -55.1%
GI50 (SW-620; [5]): 7.7 µM
GI50 (UACC-257; [3]): 4.83 µM
Percentage Cell Growth (UACC-257; single dose 10 µM): −46.24%
Percentage Cell Growth (A498; single dose 10 µM): −81.70%
GI50 (A498; [3]): 12.8 µM
Percentage Cell Growth (BT-549; single dose 10 µM): −55.13%
GI50 (BT-549; [3]): 8.17 µM
GI50 (MDA-MB-468; [3]): 3.96 µM
Percentage Cell Growth (MDA-MB-468; single dose 10 µM): −40.40%
GI50 (LOX IMVI; [3]): 10.2 µM
Percentage Cell Growth (LOX IMVI; single dose 10 µM): −85.52%
GI50 (SK-OV-3; [3]): 13.4 µM
Percentage Cell Growth (SK-OV-3; single dose 10 µM): −11.89%
Percentage Cell Growth (HCT-15; single dose 10 µM): −44.10%
GI50 (HCT-15; [3]): 4.04 µM
GI50 (SN12C; [3]): 5.65 µM
Percentage Cell Growth (SN12C; single dose 10 µM): −91.61%
cancer cell lethality, range of percentage growth ([2]; cell lines with negative growth): −8.82% to −97.54%
cases of cancer cell lethality ([2]; number of cell lines): 57
GI50 (SK-MEL-28; [3]): 12 µM
Percentage Cell Growth (SK-MEL-28; single dose 10 µM): −73.19%
GI50 (NCI/ADR-RES; [3]): 7.74 µM
Percentage Cell Growth (NCI/ADR-RES; single dose 10 µM): −57.29%
GI50 (SK-MEL-2; [3]): 10.8 µM
Percentage Cell Growth (SK-MEL-2; single dose 10 µM): −77.63%
MID b, average sensitivity of all cell line of particular subpanel (Prostate cancer subpanel): 6.31 µM
Selectivity, ratio MID a: MID b (Prostate cancer subpanel): 1.25
MID b, average sensitivity of all cell line of particular subpanel (Breast cancer subpanel): 7.09 µM
Selectivity, ratio MID a: MID b (Breast cancer subpanel): 1.11
GI50 (NCI-H522; [3]): 4.94 µM
Percentage Cell Growth (NCI-H522; single dose 10 µM): −61.13%
